{"source": "patent US20260000597A1", "about": "(priority 2018, published 2026)", "key": {"[1]": {"test_system": "TE671 cells", "procedure": "To evaluate the toxicity of Spep-1 and Spep-2, WST Assay was performed on TE671 cells."}, "[2]": {"test_system": "BALB/c mice", "type": "in vivo", "procedure": "Specifically, the DAS values for Palmitoyl-L3-37 in Example 18 were evaluated. […]; and a group treated with a saline solution (sterilized 0.9% NaCl) or 70 μg/kg bungarotoxin as a control group. Then, palmitoyl-L3-37 and the saline solution or bungarotoxin at the concentrations as above were injected each 50 μl into the hind thigh muscles of mice. Thereafter, the mice weight and the sole of the injected portion were observed and recorded every day, and the results are shown in FIGS. 37 to 39."}, "[3]": {"target": "T1, AchR (Homo sapiens, UniProt P02708)", "experiment": "cell-based", "type": "cell-based", "set-up": "endogenous in cells; host or cells: TE671", "details": "for AchR inhibitory effect: acetylcholine treatment"}, "[4]": {"target": "T1, AchR", "experiment": "ELISA of screened peptide phages on AchR versus streptavidin (OD450)", "type": "binding", "details": "absorbance at 450 nm", "method_in_brief": "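Phage supernatants from 4th–5th round plaques, in 2% BSA, applied 1 h at 30 °C to wells coated with 5 μg/ml AchR or streptavidin. Bound phage detected with HRP anti-M13 and TMB at OD450; value given as AchR/streptavidin signal ratio.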"}, "[5]": {"target": "Acetylcholine receptor proteins (AchR) (Homo sapiens, UniProt P02708)", "sequence (P02708 21-457)": "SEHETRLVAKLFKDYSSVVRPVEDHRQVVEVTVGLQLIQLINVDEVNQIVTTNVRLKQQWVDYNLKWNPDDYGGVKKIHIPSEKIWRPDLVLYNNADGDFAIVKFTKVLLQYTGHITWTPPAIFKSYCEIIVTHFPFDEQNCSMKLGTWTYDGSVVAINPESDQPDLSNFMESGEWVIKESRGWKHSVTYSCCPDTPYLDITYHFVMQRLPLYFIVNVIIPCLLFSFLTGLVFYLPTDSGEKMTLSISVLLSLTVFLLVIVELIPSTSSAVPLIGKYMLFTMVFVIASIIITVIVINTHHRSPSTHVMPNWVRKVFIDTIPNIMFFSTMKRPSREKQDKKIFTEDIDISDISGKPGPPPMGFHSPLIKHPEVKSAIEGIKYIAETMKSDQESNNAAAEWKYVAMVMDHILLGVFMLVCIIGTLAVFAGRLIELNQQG", "type": "binding", "details": "for AchR binding affinity (resonance units: Ru) among representative peptides: peptides 3 μM", "procedure": "Spep-1 to Spep-11 selected in Example 1 were synthesized, and the AchR binding affinity was compared thereamong using a surface plasmon resonance (SPR) analyzer (Biacore3000, Biacore A, Sweden). […]\nThe treatment concentrations of Spep-2 were 0.12 to 1 μM, and the dissociation constant was compared while Synake was used as a positive control."}, "[6]": {"details": "ELISA of selected 11-mer (L2) peptide phages on AchR, Spep-2 positive control"}, "[7]": {"details": "ELISA of selected 14-mer (L3) peptide phages on AchR, Spep-2 positive control"}}, "note": "pIC50: −log10 of the molar value. Read-outs that look alike come from different tables or passages of the source. Non-standard residues stand in square brackets, D forms with d. Residues, ends and D or L forms follow the SMILES beside them. No end group written: not given here. *: point of attachment. Palmitoyl = CCCCCCCCCCCCCCCC(=O)*; Dab = NCC[C@H](N)C(=O)O; NHBn = c1ccc(CN*)cc1; βAla = NCCC(=O)O", "data": [{"compound": "WTWKGKGTLNR [Spep-1, WTWKGKGTLNR]", "values": [{"measurement": "toxicity (WST assay)", "setting": "[1]", "value": "no toxicity"}]}, {"compound": "CCCCCCCCCCCCCCCC(=O)N[C@@H](Cc1c[nH]c2ccccc12)C(=O)N[C@H](C(=O)N[C@@H](Cc1c[nH]c2ccccc12)C(=O)N[C@@H](CCCCN)C(=O)NCC(=O)N[C@@H](CCCNC(=N)N)C(=O)N[C@@H](CCCCN)C(=O)N[C@@H](CO)C(=O)N[C@@H](CC(C)C)C(=O)N[C@@H](CC(C)C)C(=O)N[C@@H](CCCNC(=N)N)C(=O)O)[C@@H](C)O", "note": "[Palmitoyl-Spep-2] (Palmitoyl-WTWKGRKSLLR-OH)", "values": [{"measurement": "cytotoxicity (WST assay)", "setting": "[1]", "value": "no cytotoxicity"}]}, {"compound": "CCCCCCCCCCCCCCCC(=O)N[C@@H](CO)C(=O)N[C@@H](CC(N)=O)C(=O)N[C@H](C(=O)N[C@@H](CCCCN)C(=O)N[C@@H](CCCNC(=N)N)C(=O)N[C@@H](CCCCN)C(=O)N[C@@H](CCCNC(=N)N)C(=O)NCC(=O)N[C@@H](CCCNC(=N)N)C(=O)N[C@@H](CS)C(=O)N[C@@H](CCCCN)C(=O)N1CCC[C@H]1C(=O)N[C@@H](Cc1ccc(O)cc1)C(=O)N[C@@H](CCCNC(=N)N)C(=O)O)C(C)C", "note": "[Palmitoyl-L3-37] (Palmitoyl-SNVKRKRGRCKPYR-OH)", "values": [{"measurement": "weight of mice", "setting": "[2]; all groups, 7 days after administration", "value": "gradually increased"}, {"measurement": "acute toxicity", "setting": "[2]; up to 25 mg/kg IM, 7 days", "value": "no toxicity was observed"}]}, {"compound": "L2-110: 11-mer optimized peptide of the L2 library (Table 11, not shown here) (RYAKHRKRQTR; AchR binding peptide) [Peptide L2-110]", "values": [{"measurement": "AchR inhibition", "setting": "[3]; nicotine 400 μM, peptide 5 μM", "value": "could not inhibit"}, {"measurement": "OD", "setting": "[4]; [6]", "value": 0.831}, {"measurement": "AchR binding affinity (resonance units: Ru) among representative peptides", "setting": "[5]; SPR", "value": "higher binding affinity to AchR compared with the 8-mer L1-13"}]}, {"compound": "NCCC(=O)N1CCC[C@H]1C(=O)N[C@@H](CCN)C(=O)NCc1ccccc1", "note": "[Synake, reference compound] (H-[βAla]-Pro-[Dab]-NHBn; N-terminus and C-terminus assumed)", "values": [{"measurement": "toxicity (WST assay)", "setting": "[1]; TE671 cells, treatment concentration of 100 μM", "value": "no toxicity"}]}, {"compound": "L3-27: 14-mer optimized peptide of the L3 library (Table 12, not shown here) (RARKKRKSLLRRQV; AchR binding peptide) [Peptide L3-27]", "values": [{"measurement": "AchR inhibition", "setting": "[3]; nicotine 400 μM, peptide 1 μM", "value": 50, "unit": "%"}, {"measurement": "AchR inhibition", "setting": "[3]; nicotine 400 μM, peptide 5 μM", "value": "could not inhibit"}, {"measurement": "OD", "setting": "[4]; [7]", "value": 0.83}, {"measurement": "AchR binding affinity (resonance units: Ru) among representative peptides", "setting": "[5]; SPR", "value": "highest binding affinity"}]}, {"compound": "WTWKGRKSLLR [Spep-2, WTWKGRKSLLR]", "values": [{"measurement": "pIC50", "setting": "[3]", "value": 6.12}, {"measurement": "AchR inhibitory effect", "setting": "[3]; peptide 0.5 μM, TE671 cells", "value": 90, "unit": "%"}, {"measurement": "AchR inhibitory effect", "setting": "[3]; peptide 5 μM, TE671 cells", "value": 100, "unit": "%"}, {"measurement": "AchR inhibitory rate", "setting": "[3]; nicotine 400 μM, peptide 20 μM, TE671 cells", "value": "about 10%"}, {"measurement": "AchR inhibition", "setting": "[3]; nicotine 400 μM, peptide 70 μM", "value": "could not inhibit"}, {"measurement": "AchR inhibition", "setting": "[3]; nicotine 400 μM, peptide 80 μM", "value": 100, "unit": "%"}, {"measurement": "nicotinic acetylcholine receptor inhibitory effects", "setting": "[3]; nicotine treatment, compared with Synake, TE671 cells", "value": "excellent nicotinic acetylcholine receptor inhibitory effects"}, {"measurement": "toxicity (WST assay)", "setting": "[1]", "value": "no toxicity"}, {"measurement": "OD", "setting": "[4]; [6]", "value": 0.303}, {"measurement": "OD", "setting": "[4]; [7]", "value": 0.303}, {"measurement": "OD", "setting": "[4]; phage ELISA, 5 μg/ml AchR, 4th and 5th round biopanning phages", "value": 0.303}, {"measurement": "AchR binding affinity", "setting": "[5]; SPR, 10 μM peptides, compared with Synake", "value": "high AchR binding affinity compared with Synake"}, {"measurement": "AchR binding affinity superior to that of Synake", "setting": "[5]; from Kd values", "value": "about 2,000 times"}]}]}
